Two compounds from patent US12274709B2, “Dual-drug co-delivery system, preparation method therefor and use thereof” (Institute of Basic Medical Sciences Chinese Academy of …, priority 2019, dated 2025) can be followed below.

SMILES strings stand for the structures. Counter-ions that a name gives are not always drawn.

Broadly, the viability is a per cent measure of how many cells are alive, often set against a control. The low end stands for more harm to the cells, the high end for less harm to the cells.

What all share (assay type): cell-based
One data set relates to HeLa cells. As to the kind of experiment: CCK8 cell viability, HeLa cells. The settings on record: Homo sapiens, HHT 20 ng/mL, DOX 120 ng/mL (6:1). On the procedure: (§1) Cells in the Corning 96-well U plates were incubated for 24 h and then washed with PBS, 110 μL CCK8 dilution was added to each well and incubated for 2 h, and the absorbance values (OD) at wavelengths of 450 and 630 nm were measured using the microplate reader. The cell viability was calculated according to Formula 1.

A further data set relates to K562 cells. Kind of data set: CCK8 cell viability, K562 cells. The settings on record: Homo sapiens, HHT 25 ng/mL, DOX 375 ng/mL (15:1). As to the method:
as §1

In data set [1] the test system is U937R (cytarabine-resistant strain, acute myeloid leukemia). As to the kind of experiment: CCK8 cell viability, U937R cells. The settings on record: HHT 15 ng/mL, DOX 120 ng/mL (8:1). As to the method: as §1
The test system of data set [2] is HL60/A cells (HL60 cells resistant to Doxorubicin). As to the kind of experiment: CCK8 cell viability, HL60/A cells. The settings on record: 24 h. On the procedure: Taking HL60/A cells (HL60 cells resistant to Doxorubicin) as an example, the specific method was as follows:
as §1

The subject of another data set is MCF7 cells. Kind of data set: CCK8 cell viability, MCF7 cells. To be noted: Homo sapiens, HHT 25 ng/mL, DOX 100 ng/mL (4:1). As to the method: as §1

For the compound `COc1cccc2c1C(=O)c1c(O)c3c(c(O)c1C2=O)C[C@@](O)(C(=O)CO)C[C@@H]3O[C@H]1C[C@H](N)[C@H](O)[C@H](C)O1` [DOX, Doxorubicin hydrochloride], the viability at 0.12 µg/mL was determined as 90% in the data set on HeLa cells and 55% in data set [1]. In the data set on K562 cells, this compound registered a viability at 0.375 µg/mL of 80%. In addition, the “cytotoxicity against Doxorubicin-resistant strain HL60/A” value in data set [2] (DOX 200 ng/mL, FIG. 3) is listed as “no cytotoxicity”. The viability at 0.1 µg/mL with MCF7 cells is 92%.
Consider `COC(=O)C[C@](O)(CCCC(C)(C)O)C(=O)O[C@@H]1C(OC)=C[C@]23CCCN2CCc2cc4c(cc2[C@H]13)OCO4` [HHT, Homoharringtonine], for which the viability at 0.02 µg/mL in the data set with HeLa cells came out at 41%. Also, the viability at 0.025 µg/mL in the data set with K562 cells stood at 59%; in data set [2] (Homo sapiens, HL60/A cells, HHT 25 ng/mL, DOX 200 ng/mL (DOX:HHT 8:1), FIG. 3, system of Example 1) it was 56%; in the data set with MCF7 cells it was 50%. This compound displayed a viability at 0.015 µg/mL in data set [1] of 59%.
